According to patent publication US20230104936A1, “TRPML MODULATORS” (Casma Therapeutics, Inc., priority 2019, published 2023):

These compounds were tested on TFEB (assay: TFEB nuclear translocation assay, HeLa wt cells). Details: Homo sapiens, HeLa, 2 h, 2 hrs compound treatment, Table 1 does not say HeLa wt or TRPML1 KO.
Type: cell-based
How it was run: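 TFEB translocation into the nucleus of HeLa wt cells is scored by high-content immunofluorescence after 2 hrs of compound treatment at 37° C, reported as AC50.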
`C[C@@H]1CN(CC2CCCN(c3c(F)cccc3NS(=O)(=O)c3ccc(S(=O)(=O)N(C)C)cc3)CC2)C[C@H](C)O1` (stereo partly drawn) [Compound A-918, N4-[2-(4-{[(2R,6S)-2,6-dimethylmorpholin-4-yl]methyl}azepan-1-yl)-3-fluorophenyl]-N1,N1-dimethylbenzene-1,4-disulfonamide] showed an AC50 of at most 2000 nM. With `O=S(=O)(Nc1cccc(F)c1N1CCC(CN2C3CCC2COC3)CC1)c1ccc(C(F)(F)C2CC2)cc1` [Compound A-919, 4-(cyclopropyldifluoromethyl)-N-{3-fluoro-2-[4-({3-oxa-8-azabicyclo[3.2.1]octan-8-yl}methyl)piperidin-1-yl]phenyl}benzene-1-sulfonamide] the AC50 was at most 2000 nM. For `CC(c1cccc(F)c1N1CCCCC1)S(=O)(=O)c1ccc2c(c1)CCS2(=O)=O` (centres unmarked) [Compound A-920, 5-{1-[3-fluoro-2-(piperidin-1-yl)phenyl]ethanesulfonyl}-2,3-dihydro-1λ^6-benzothiophene-1,1-dione], the AC50 was at least 10000 nM. `CN(C)S(=O)(=O)c1ccc(S(=O)(=O)Nc2cccc(C#CC(F)F)c2N2CCCCC2)cc1` [Compound A-921, N4-[3-(3,3-difluoroprop-1-yn-1-yl)-2-(piperidin-1-yl)phenyl]-N1,N1-dimethylbenzene-1,4-disulfonamide] gave an AC50 of at most 2000 nM. Compound `CC(C)S(=N)(=O)c1ccc(S(=O)(=O)[C@H](C)c2cccc(F)c2N2CCCCC2)cc1` (stereo partly drawn) [Compound A-922, (4-(((R)-1-(3-fluoro-2-(piperidin-1-yl)phenyl)ethyl)sulfonyl)phenyl)(imino)(isopropyl)-λ^6-sulfanone] has an AC50 of at least 10000 nM. `Cc1cc(NS(=O)(=O)c2ccc(S(=O)(=O)N(C)C)cc2)n(C2CCCCC2)c(=O)c1` [Compound A-934, N4-(1-cyclohexyl-4-methyl-6-oxo-1,6-dihydropyridin-2-yl)-N1,N1-dimethylbenzene-1,4-disulfonamide] was tested, and the AC50 was at least 10000 nM. `CC(c1cccc(F)c1N1CCCCC1)S(=O)(=O)c1ccc(S(=O)(=O)N(C)C)nn1` (centres unmarked) [Compound A-941, 6-{1-[3-fluoro-2-(piperidin-1-yl)phenyl]ethanesulfonyl}-N,N-dimethylpyridazine-3-sulfonamide] was tested, and the AC50 was 2010 to 8000 nM. Work on `Cc1cnc(N2CCC(CN3CCC(F)(F)CC3)CC2)c(NS(=O)(=O)c2ccc(S(=O)(=O)N(C)C)cc2)c1` [Compound A-952, N4-(2-{4-[(4,4-difluoropiperidin-1-yl)methyl]piperidin-1-yl}-5-methylpyridin-3-yl)-N1,N1-dimethylbenzene-1,4-disulfonamide] yielded an AC50 of at most 2000 nM. For `CN=S(=O)(c1ccc(S(=O)(=O)Nc2cccc(F)c2N2CCC(CN3C[C@@H](C)O[C@@H](C)C3)CC2)cc1)N(C)C` (stereo partly drawn) [Compound A-956, 4-{[2-(4-{[(2R,6S)-2,6-dimethylmorpholin-4-yl]methyl}piperidin-1-yl)-3-fluorophenyl]sulfamoyl}-N,N,N-trimethylbenzene-1-sulfonoimidamide], the AC50 was at most 2000 nM. With `CC(c1cccc(F)c1N1CCOCC1)S(=O)(=O)c1ccc2c(c1)CCS2(=O)=O` (centres unmarked) [Compound A-957, 5-{1-[3-fluoro-2-(morpholin-4-yl)phenyl]ethanesulfonyl}-2,3-dihydro-1λ^6-benzothiophene-1,1-dione] the AC50 was at least 10000 nM. With `CC(c1cc(Cl)cnc1N1CCC(CN2CCC(F)(F)CC2)CC1)S(=O)(=O)c1ccc(S(=O)(=O)N(C)C)cc1` (centres unmarked) [Compound A-958, 4-[1-(5-chloro-2-{4-[(4,4-difluoropiperidin-1-yl)methyl]piperidin-1-yl}pyridin-3-yl)ethanesulfonyl]-N,N-dimethylbenzene-1-sulfonamide] the AC50 was at most 2000 nM. For `C[C@@H]1CN(c2nn(S(=O)(=O)c3ccc(S(=O)(=O)N(C)C)cc3)c3ccccc23)C[C@H](C)C1(F)F` [Compound A-968, 4-({3-[(3R,5S)-4,4-difluoro-3,5-dimethylpiperidin-1-yl]-1H-indazol-1-yl}sulfonyl)-N,N-dimethylbenzene-1-sulfonamide], the AC50 was at most 2000 nM. Compound `C[C@@H]1CN(c2nn(S(=O)(=O)c3ccc(S(=O)(=O)N(C)C)cc3)c3ccccc23)C[C@H](C)C1F` (stereo partly drawn) [Compound A-969, 4-({3-[(3R,5S)-4-fluoro-3,5-dimethylpiperidin-1-yl]-1H-indazol-1-yl}sulfonyl)-N,N-dimethylbenzene-1-sulfonamide] has an AC50 of at most 2000 nM. For `CC(c1cccc(F)c1N1CCC(CN2C[C@@H](C)C(F)(F)[C@@H](C)C2)CC1)S(=O)(=O)c1ccc(S(=O)(=O)N(C)C)cc1` (stereo partly drawn) [Compound A-970, 4-{1-[2-(4-{[(3R,5S)-4,4-difluoro-3,5-dimethylpiperidin-1-yl]methyl}piperidin-1-yl)-3-fluorophenyl]ethanesulfonyl}-N,N-dimethylbenzene-1-sulfonamide], the AC50 was at most 2000 nM. `CC(Sc1ccc(S(=O)(=O)C(F)F)cc1)c1cccc(F)c1N1CCCCC1` (centres unmarked) [Compound A-971, 1-(2-{1-[(4-difluoromethanesulfonylphenyl)sulfanyl]ethyl}-6-fluorophenyl)piperidine] was tested, and the AC50 was 2010 to 8000 nM. `CC(c1cccc(F)c1N1CCCCC1)[S+]([O-])c1ccc(S(=O)(=O)C(F)F)cc1` (centres unmarked) [Compound A-972, 1-{2-[1-(4-difluoromethanesulfonylbenzenesulfinyl)ethyl]-6-fluorophenyl}piperidine] was tested, and the AC50 was 2010 to 8000 nM. Compound `CC(c1cccc(F)c1N1CCCCC1)S(=O)(=O)c1ccc(S(=O)(=O)C(F)F)cc1` (centres unmarked) [Compound A-973, 1-{2-[1-(4-difluoromethanesulfonylbenzenesulfonyl)ethyl]-6-fluorophenyl}piperidine] has an AC50 of at most 2000 nM. Compound `C[C@@H]1COC[C@H](C)N1C[C@H]1CCN(c2c(F)cccc2NS(=O)(=O)c2ccc(S(=O)(=O)N(C)C)cc2)C1` [Compound A-984] has an AC50 of at most 2000 nM. Compound `CC(c1cccc(F)c1N1CCC(CN2CC3CCC(C2)C3(F)F)CC1)S(=O)(=O)c1ccc(S(=O)(=O)N(C)C)cc1` (centres unmarked) [Compound A-985, 4-(1-{2-[4-({8,8-difluoro-3-azabicyclo[3.2.1]octan-3-yl}methyl)piperidin-1-yl]-3-fluorophenyl}ethanesulfonyl)-N,N-dimethylbenzene-1-sulfonamide] has an AC50 of at most 2000 nM. Compound `CC(c1cncc(F)c1N1CCC(F)(F)CC1)S(=O)(=O)c1ccc(S(=O)(=O)N(C)C)cc1` (centres unmarked) [Compound A-986, 4-{1-[4-(4,4-difluoropiperidin-1-yl)-5-fluoropyridin-3-yl]ethanesulfonyl}-N,N-dimethylbenzene-1-sulfonamide] has an AC50 of at least 10000 nM. For `CC(c1cccnc1N1CCC(CN2CCC(F)(F)CC2)CC1)S(=O)(=O)c1ccc(S(=O)(=O)N(C)C)cc1` (centres unmarked) [Compound A-987, 4-[1-(2-{4-[(4,4-difluoropiperidin-1-yl)methyl]piperidin-1-yl}pyridin-3-yl)ethanesulfonyl]-N,N-dimethylbenzene-1-sulfonamide], the AC50 was at most 2000 nM. `CC(c1cncc(F)c1N1CCC(CN2CCC(F)(F)CC2)CC1)S(=O)(=O)c1ccc(S(=O)(=O)N(C)C)cc1` (centres unmarked) [Compound A-996, 4-[1-(4-{4-[(4,4-difluoropiperidin-1-yl)methyl]piperidin-1-yl}-5-fluoropyridin-3-yl)ethanesulfonyl]-N,N-dimethylbenzene-1-sulfonamide] showed an AC50 of at most 2000 nM. Work on `CC(c1cccc(F)c1N1CCC(CN2C[C@@H](C)O[C@@H](C)C2)CC1)S(=O)(=O)c1ccc(N=S(C)(C)=O)cc1` (stereo partly drawn) [Compound A-1002, [(4-{1-[2-(4-{[(2R,6S)-2,6-dimethylmorpholin-4-yl]methyl}piperidin-1-yl)-3-fluorophenyl]ethanesulfonyl}phenyl)imino]dimethyl-λ^6-sulfanone] yielded an AC50 of at least 10000 nM.
